Like-named read-outs stand apart in the source and are kept apart here.
Assays:
rat primary hepatocytes [1] = test: Cell shrinkage analysis in hypertonic NaCl solution; format: cell-based; conditions: 5M NaCl, 20 minutes; 12 hours treatment; HgCl2 0.1 mM for 5 min; vs control cells; FIG. 1
Description: Cell shrinkage analysis. Cell shrinkage analysis was performed on treated and control samples prepared on tissue culture plates as described above. One culture plate at a time was transferred to an Olympus IX70 microscope (Olympus America Inc, Pa.) mounted with a computer interfaced camera (Hamamatsu Corporation, Bridgewater, N.J.). The media from culture plate was aspirated and 1 mL of 5M NaCl solution was added. Response of the cells to the hypertonic NaCl solution was captured at 40× magnification at one minute intervals for 20 minutes. Images were processed using software MetaMorph Imaging System (Molecular Devices, Sunnyvale, Calif.). Using MetaMorp, the variations of the cross-sectional area of the cells at various sites were measured over time to analyze the shrinkage behavior of the cells in the hypertonic solution.

AQP8 [2] = test: Confocal immunofluorescence of AQP8 localization in cultured hepatocytes; format: cell-based, rat; conditions: hepatocytes treated 12 hours; 100 μM Bt2cAMP or 1 μM glucagon; vs control
Description: Confocal immunofluorescence. For confocal immunofluorescence experiments, collagen coated chamber slides were used instead of the tissue culture plates. Hepatocytes (5×10^5) were plated on the collagen-coated chamber slides, and incubated at 37° C. for 4 hours. The cells were then treated with a) Bt2cAMP, b) glucagon and c) normal DMEM media (control) and incubated for 12 hours. After the 12 hours, the cells were fixed with 2% formaldehyde for 10 minutes at room temperature and permeabilized with 0.2% Triton X-100 for 2 minutes. The cells were then treated with a blocking solution containing 3% BSA at room temperature and incubated overnight at 4° C. with goat affinity-purified AQP8 antibody (Santa Cruz Biotechnology Inc., Santa Cruz, Calif.) of dilution 1:50 in PBS. Then, the chamber slides were rinsed with PBS solution and treated with Alexa Flour 488—conjugated donkey anti-goat […] secondary antibody (Invitrogen, Calif.) for 1 hour. The dilution of the secondary antibody used was 1:400 in PBS. Then the cells were treated with 1 μg/mL concentration of Hoechst 33342 (Molecular Probes, Eugene, Oreg.) and mounted with Pro- Long (Molecular Probes, Eugene, Oreg.). Fluorescence localization of the AQP8 was then detected by immersion oil confocal microscopy with 100× magnification lens.

rat primary hepatocytes [3] = test: Post-thaw cell viability after cryopreservation (Live-Dead staining); format: cell-based; conditions: for post-thaw cell viability vs control: 20% DMSO or 20% glycerol in DMEM as CPA, one week at −80° C., 24 hours recuperation, FIG. 2 and 3; for cell survival with glycerol as the CPA compared with DMSO: treated cells, glycerol vs DMSO as cryoprotectant
Description: Cryopreservation of Treated and Control Samples. After treatment of cell cultures for 12 hours, samples were removed from the incubator and placed on ice to reduce the cell temperature to 4° C. to minimize the toxicity of the cryoprotecting agent (CPA). Two different CPA solutions, 20% dimethyl sulfoxide in DMEM media and 20% glycerol in DMEM media were used. The CPA solution (1 mL) was added to the samples and incubated at 4° C. for 10 minutes to reach equilibrium. Samples were transferred to the CryoMed Control Rate freezer (Thermo Forma, Waltham, Mass.).
The controlled cooling process was initiated at 4° C. and a cooling rate of 1° C./min was maintained until −16° C. followed by a cooling rate of 2° C./min until −36° C./min, and thereafter a cooling rate of 10° C./min until a temperature of −80° C. was achieved. The samples were further maintained at −80° C. for 5 minutes to ensure equilibrium. At the end of the freezing process, the samples were transferred immediately to a −80° C. Revco freezer (Kendro Laboratory, Ashville, N.C.) and stored for a week.
Evaluation of Post-thaw Cell Viability. The cryopreserved samples from the −80° C. freeze were transferred to a sterile glass box and plated in a water bath maintained at 37° C. until the media in the frozen samples completely thawed. At this juncture, the samples were between 5-10° C. Immediately, the CPA containing media in the samples was aspirated to prevent any toxicity to the cells. DMEM (1 mL) was added to the samples and incubated at 37° C. for 10 minutes. After 10 minutes of incubation, the media in the samples was again refreshed in order to remove any remaining traces of CPA. These samples were then placed in the incubator at 37° C., 5% CO2 for 24 hours and allowed to recuperate from the freeze-thaw process.
After 24 hours of recuperation time, cell viability of the samples was determined by using nuclei fluorescence dyes. The samples were washed with 1× PBS solution and incubated with Hoechst Dye (1 μg/mL) and Ethidium Homodimer (2 μM)(Molecular Probes, Eugene, Oreg.) in PBS for 30 minutes. The viability solution was aspirated, and samples were fixed by adding 10% formalin (1 mL) (VWR, West Chester, Pa.) and incubating for 20 minutes. Subsequently, the cell viability was examined with a confocal microscope with DAPI (excitation 358 nm; emission 461 nm) and Texas red (excitation 596 nm; emission 620 nm) filters. The fluorescent images obtained were then analyzed using MetaMorp Imaging System.

AQP8 [4] = conditions: cited from earlier work

Compound | cross-sectional area of cells over time (shrinkage) in hypertonic environment (rat primary hepatocytes [1]) | AQP8 labeling at the cellular membrane (AQP8 [2]) | post-thaw cell viability vs control (rat primary hepatocytes [3]) | post-thaw cell viability of Bt2cAMP-treated vs glucagon-treated samples (rat primary hepatocytes [3]; 12 hrs treatment, most of the culture samples) | cell survival with glycerol as the CPA compared with DMSO (rat primary hepatocytes [3]) | post-thaw cell viability by CPA used (rat primary hepatocytes [3]; glycerol as CPA compared to DMSO) | increase in the quantity of AQP8 on cellular membrane (AQP8 [4]; treatment of hepatocytes for 16 hours) [%] | increase in the quantity of AQP8 on cellular membrane (AQP8 [4]; treatment of hepatocytes for 36 hours) [%]
CCCC(=O)Nc1ncnc2c1ncn2[C@@H]1O[C@@H]2COP(=O)(O)O[C@H]2[C@H]1OC(=O)CCC [Bt2cAMP, sodium (3aR,4R,6R,6aR)-4-(6-butanamido-9H-purin-9-yl)-6-[(butanoyloxy)methyl]-2-oxo-tetrahydro-2H-1,3,5,2λ^5-furo[3,4-d][1,3,2] dioxaphosphol-2-olate] | significant decrease in their cross-sectional area over time | higher density of AQP8 labeling at the cellular membrane | significantly higher than the control | higher cell viability compared to the ones treated with glucagon | significant increase in the cell survival |  |  | 
[Cl][Hg][Cl] [HgCl2] | no significant shrinkage behavior |  | significantly lower cell viability |  |  |  |  | 
OCC(O)CO [glycerol] |  |  |  |  |  | significantly higher post-thaw cell viability compared to DMSO |  | 
glucagon | significant decrease in their cross-sectional area over time | higher density of AQP8 labeling at the cellular membrane | significantly higher than the control |  | significant increase in the cell survival |  | 80 | 120
